Each block holds one compound with its values, some of them ahead of it.
Columns and labels:
[1] = biological target: Lysine-specific histone demethylase 1A (Homo sapiens, UniProt O60341)
Description: Inhibition of human recombinant LSD1 using fluorogenic ADHP based substrate preincubated for 30 mins followed by substrate addition measured after 10 mins by horseradish peroxidase coupled fluorescence assay

[2] = tested on: PC-3; assay: cells; settings: Homo sapiens, PC-3, 72 h
Description: Antiproliferative activity against human PC-3 cells incubated for 72 hrs by CCK8 assay

[3] = tested on: THP-1; assay: cells; settings: Homo sapiens, THP-1, 72 h
Description: Antiproliferative activity against human THP-1 cells incubated for 72 hrs by CCK8 assay

[4] = tested on: MCF7; assay: cells; settings: Homo sapiens, MCF7, 72 h
Description: Antiproliferative activity against human MCF7 cells incubated for 72 hrs by CCK8 assay

[5] = tested on: MGC-803; assay: cells; settings: Homo sapiens, MGC-803, 72 h
Description: Antiproliferative activity against human MGC-803 cells incubated for 72 hrs by CCK8 assay

[6] = tested on: A549; assay: cells; settings: Homo sapiens, A549, 72 h
Description: Antiproliferative activity against human A549 cells incubated for 72 hrs by CCK8 assay

[7] = tested on: NB-4; assay: cells; settings: Homo sapiens, NB-4, 72 h
Description: Antiproliferative activity against human NB-4 cells incubated for 72 hrs by CCK8 assay

[8] = Solubility of compound; type: physicochemical

IC50 [1]: 38.2 nM
Structure (SMILES): CN1CCC(Oc2ccc(CN3CCCc4cccc(NC(=O)c5cc6sccc6n5C)c43)cc2)CC1

IC50 [1]: 149 nM
Structure (SMILES): Cn1c(C(=O)Nc2cccc3c2N(Cc2ccc(OC[C@H]4CCNC4)cc2)CCC3)cc2sccc21

IC50 [1]: > 50000 nM
Structure (SMILES): Cn1c(C(=O)Nc2cccc3c2N(Cc2ccc(OCc4ccc(N)cc4)cc2)CCC3)cc2sccc21

IC50 [2]: 5430 nM
IC50 [3]: 10200 nM
IC50 [4]: 5590 nM
IC50 [5]: 3670 nM
IC50 [6]: 8390 nM
IC50 [7]: 1100 nM
IC50 [1]: 0.15 nM
Structure (SMILES): CCn1c(C(=O)Nc2cccc3c2N(Cc2ccc(OC4CCNCC4)cc2)CCC3)cc2ccccc21

IC50 [1]: 0.18 nM
Structure (SMILES): CC(C)n1c(C(=O)Nc2cccc3c2N(Cc2ccc(OC4CCNCC4)cc2)CCC3)cc2ccccc21

IC50 [2]: 4070 nM
IC50 [3]: 20400 nM
IC50 [4]: 6590 nM
IC50 [5]: 3690 nM
IC50 [6]: 2820 nM
IC50 [7]: 2880 nM
IC50 [1]: 37.7 nM
Structure (SMILES): Cn1c(C(=O)Nc2cccc3c2N(Cc2ccc(OCC4CCNCC4)cc2)CCC3)cc2sccc21

solubility [8]: Insoluble
IC50 [1]: 8.25 nM
Structure (SMILES): Cn1c(C(=O)Nc2cccc3c2N(Cc2ccc(OC4CC[N+](C)(C)CC4)cc2)CCC3)cc2sccc21

IC50 [1]: 0.97 nM
Structure (SMILES): Cn1nc(C(=O)Nc2cccc3c2N(Cc2ccc(OC4CCNCC4)cc2)CCC3)c2ccccc21

IC50 [6]: 5230 nM
IC50 [1]: 80.4 nM
Structure (SMILES): Cn1c(C(=O)Nc2cccc3c2N(Cc2ccc(OC[C@@H]4CCNC4)cc2)CCC3)cc2sccc21

IC50 [1]: > 50000 nM
Structure (SMILES): Cn1c(C(=O)Nc2cccc3c2N(Cc2ccc(OCc4ccc([N+](=O)[O-])cc4)cc2)CCC3)cc2sccc21

IC50 [1]: > 50000 nM
Structure (SMILES): Cn1c(C(=O)Nc2cccc3c2N(Cc2ccc(OCc4cccc(C(N)=O)c4)cc2)CCC3)cc2sccc21

IC50 [1]: 36.3 nM
Structure (SMILES): Cn1c(C(=O)Nc2cccc3c2N(Cc2ccc(O[C@H]4CC[C@H](N(C)C)CC4)cc2)CCC3)cc2sccc21

IC50 [1]: > 50000 nM
Structure (SMILES): Cn1c(C(=O)Nc2cccc3c2N(Cc2ccc(OCc4ccc(C(N)=O)cc4)cc2)CCC3)cc2sccc21

solubility [8]: Insoluble
IC50 [1]: 17.3 nM
Structure (SMILES): Cn1c(C(=O)Nc2cccc3c2N(Cc2ccc(OCC4CC[N+](C)(C)CC4)cc2)CCC3)cc2sccc21

IC50 [1]: 53.5 nM
Structure (SMILES): CN1CCC(COc2ccc(CN3CCCc4cccc(NC(=O)c5cc6sccc6n5C)c43)cc2)CC1

IC50 [1]: 47.4 nM
Structure (SMILES): Cn1c(C(=O)Nc2cccc3c2N(Cc2ccc(OCCCN)cc2)CCC3)cc2sccc21

IC50 [1]: 1.52 nM
Structure (SMILES): CCCn1c(C(=O)Nc2cccc3c2N(Cc2ccc(OC4CCNCC4)cc2)CCC3)cc2ccccc21

IC50 [1]: > 50000 nM
Structure (SMILES): CNc1cccc(COc2ccc(CN3CCCc4cccc(NC(=O)c5cc6sccc6n5C)c43)cc2)c1

IC50 [1]: > 50000 nM
Structure (SMILES): Cn1c(C(=O)Nc2cccc3c2N(Cc2ccc(OCc4ccc(C#N)cc4)cc2)CCC3)cc2sccc21

IC50 [1]: > 50000 nM
Structure (SMILES): CN(C)c1cccc(COc2ccc(CN3CCCc4cccc(NC(=O)c5cc6sccc6n5C)c43)cc2)c1

IC50 [1]: 732 nM
Structure (SMILES): Cn1c(C(=O)Nc2cccc3c2N(Cc2ccc(OCC4CCOCC4)cc2)CCC3)cc2sccc21

IC50 [6]: 7300 nM
IC50 [1]: 38.3 nM
Structure (SMILES): Cn1c(C(=O)Nc2cccc3c2N(Cc2ccc(O[C@H]4CC[C@@H](N)CC4)cc2)CCC3)cc2sccc21

IC50 [2]: 3640 nM
IC50 [3]: 18100 nM
IC50 [4]: 5720 nM
IC50 [5]: 2170 nM
IC50 [6]: 1250 nM
IC50 [7]: 2780 nM
IC50 [1]: 36.4 nM
Structure (SMILES): Cn1c(C(=O)Nc2cccc3c2N(Cc2ccc(OC4CCNCC4)cc2)CCC3)cc2sccc21

IC50 [1]: > 50000 nM
Structure (SMILES): Cn1c(C(=O)Nc2cccc3c2N(Cc2ccc(OCc4cccc(C#N)c4)cc2)CCC3)cc2sccc21

IC50 [1]: 25.6 nM
Structure (SMILES): Cn1ccc2cc(C(=O)Nc3cccc4c3N(Cc3ccc(OC5CCNCC5)cc3)CCC4)ccc21

IC50 [1]: 1.13 nM
Structure (SMILES): Cn1c(C(=O)Nc2cccc3c2N(Cc2ccc(OC4CCNCC4)cc2)CCC3)cc2ccc(Cl)cc21

IC50 [1]: > 50 nM
Structure (SMILES): Cc1ccc2c(c1)cc(C(=O)Nc1cccc3c1N(Cc1ccc(OC4CCNCC4)cc1)CCC3)n2C

IC50 [1]: 16.3 nM
Structure (SMILES): Cn1c(C(=O)Nc2cccc3c2N(Cc2ccc(OC4CCNCC4)cc2)CCC3)cc2cc(Cl)ccc21

IC50 [1]: > 50 nM
Structure (SMILES): COc1ccc2c(c1)cc(C(=O)Nc1cccc3c1N(Cc1ccc(OC4CCNCC4)cc1)CCC3)n2C

IC50 [1]: 36.6 nM
Structure (SMILES): Cn1c(C(=O)Nc2cccc3c2N(Cc2ccc(O[C@H]4CC[C@H](N)CC4)cc2)CCC3)cc2sccc21

IC50 [6]: 3640 nM
IC50 [1]: 46.8 nM
Structure (SMILES): Cn1c(C(=O)Nc2cccc3c2N(Cc2ccc(OC4CCNC4)cc2)CCC3)cc2sccc21 (centres undefined)

IC50 [1]: > 50000 nM
Structure (SMILES): Cn1c(C(=O)Nc2cccc3c2N(Cc2ccc(OCc4cccc([N+](=O)[O-])c4)cc2)CCC3)cc2sccc21

IC50 [1]: 31.3 nM
Structure (SMILES): CN(C)CCCOc1ccc(CN2CCCc3cccc(NC(=O)c4cc5sccc5n4C)c32)cc1

Further lines, the compound ahead of its results:

Structure (SMILES): N[C@H]1CC[C@H](N[C@H]2C[C@@H]2c2ccccc2)CC1
IC50 [2]: > 30000 nM
IC50 [3]: > 30000 nM
IC50 [4]: > 30000 nM
IC50 [5]: > 30000 nM
IC50 [6]: > 30000 nM
IC50 [7]: > 30000 nM

Structure (SMILES): O=C(Nc1cccc2c1N(Cc1ccc(OC3CCNCC3)cc1)CCC2)c1cc2ccccc2n1CC(F)F
IC50 [1]: 0.78 nM

Structure (SMILES): Cn1cc(C(=O)Nc2cccc3c2N(Cc2ccc(OC4CCNCC4)cc2)CCC3)c2ccccc21
IC50 [1]: 4.55 nM

Structure (SMILES): O=C(Nc1cccc2c1N(Cc1ccc(OC3CCNCC3)cc1)CCC2)c1cc2ccccc2n1CCF
IC50 [2]: 2600 nM
IC50 [3]: 9780 nM
IC50 [4]: 6960 nM
IC50 [5]: 6260 nM
IC50 [6]: 7670 nM
IC50 [7]: 3290 nM
IC50 [1]: 0.06 nM

Structure (SMILES): O=C(Nc1cccc2c1N(Cc1ccc(OC3CCNCC3)cc1)CCC2)c1ccc(C(F)(F)F)cc1F
IC50 [1]: 5.12 nM

Structure (SMILES): O=C(Nc1cccc2c1N(Cc1ccc(OC3CCNCC3)cc1)CCC2)c1cc2ccccc2[nH]1
IC50 [1]: 2.81 nM

Structure (SMILES): O=C(Nc1cccc2c1N(Cc1ccc(OC3CCNCC3)cc1)CCC2)c1nc2ccccc2[nH]1
IC50 [1]: 2.31 nM

Structure (SMILES): O=C(Nc1cccc2c1N(Cc1ccc(OC3CCNCC3)cc1)CCC2)c1cc2ccccc2o1
IC50 [1]: 0.53 nM

Structure (SMILES): Cn1ccc2cccc(C(=O)Nc3cccc4c3N(Cc3ccc(OC5CCNCC5)cc3)CCC4)c21
IC50 [1]: 4.44 nM

Structure (SMILES): Cn1ccc2c(C(=O)Nc3cccc4c3N(Cc3ccc(OC5CCNCC5)cc3)CCC4)cccc21
IC50 [1]: 3.92 nM

Structure (SMILES): O=C(Nc1cccc2c1N(Cc1ccc(OC3CCNCC3)cc1)CCC2)c1ccc(C(F)(F)F)cc1
IC50 [1]: 1.82 nM

Structure (SMILES): O=C(Nc1cccc2c1N(Cc1ccc(OC3CCNCC3)cc1)CCC2)c1nc2ccccc2s1
IC50 [1]: 0.92 nM

Structure (SMILES): O=C(Nc1cccc2c1N(Cc1ccc(OC3CCNCC3)cc1)CCC2)c1cc2ccccc2n1C(F)F
IC50 [1]: 0.39 nM

Structure (SMILES): O=C(Nc1cccc2c1N(Cc1ccc(OC3CCNCC3)cc1)CCC2)c1ccc(C(F)(F)F)nc1
IC50 [1]: > 50 nM

Structure (SMILES): O=C(Nc1cccc2c1N(Cc1ccc(OC3CCNCC3)cc1)CCC2)c1cc2ccccc2n1CC1CC1
IC50 [1]: 2.65 nM

Structure (SMILES): O=C(Nc1cccc2c1N(Cc1ccc(OC3CCNCC3)cc1)CCC2)c1ccc2[nH]ccc2c1
IC50 [1]: 4.58 nM

Structure (SMILES): Cc1ccncc1C(=O)Nc1cccc2c1N(Cc1ccc(OC3CCNCC3)cc1)CCC2
IC50 [1]: 1.56 nM

Structure (SMILES): O=C(Nc1cccc2c1N(Cc1ccc(OC3CCNCC3)cc1)CCC2)c1cccc2[nH]ccc12
IC50 [1]: 0.54 nM

Structure (SMILES): O=C(Nc1cccc2c1N(Cc1ccc(OC3CCNCC3)cc1)CCC2)c1cnc2ccccc2c1
IC50 [1]: 18.8 nM

Structure (SMILES): O=C(Nc1cccc2c1N(Cc1ccc(OC3CCNCC3)cc1)CCC2)c1cc2ccccc2n1CCCl
IC50 [1]: 0.15 nM

Structure (SMILES): O=C(Nc1cccc2c1N(Cc1ccc(OC3CCNCC3)cc1)CCC2)c1cc2ccccc2s1
IC50 [1]: 0.93 nM

Structure (SMILES): O=C(Nc1cccc2c1N(Cc1ccc(OC3CCNCC3)cc1)CCC2)c1ccc2ccccc2n1
IC50 [1]: 13.1 nM

Reference: ChEMBL document CHEMBL4680245, “Design, synthesis and biological evaluation of tetrahydroquinoline-based reversible LSD1 inhibitors” (Eur J Med Chem, 2020)
